Key:
[1] = target: 5-hydroxytryptamine receptor 1B (Homo sapiens, UniProt P28222); assay: Binding affinity against 5-hydroxytryptamine 1B receptor
[2] = target: T1, 5-hydroxytryptamine receptor 2C (Rattus norvegicus, UniProt P08909); assay: Binding affinity against 5-hydroxytryptamine 1C receptor
T1 sequence (P08909 whole entry): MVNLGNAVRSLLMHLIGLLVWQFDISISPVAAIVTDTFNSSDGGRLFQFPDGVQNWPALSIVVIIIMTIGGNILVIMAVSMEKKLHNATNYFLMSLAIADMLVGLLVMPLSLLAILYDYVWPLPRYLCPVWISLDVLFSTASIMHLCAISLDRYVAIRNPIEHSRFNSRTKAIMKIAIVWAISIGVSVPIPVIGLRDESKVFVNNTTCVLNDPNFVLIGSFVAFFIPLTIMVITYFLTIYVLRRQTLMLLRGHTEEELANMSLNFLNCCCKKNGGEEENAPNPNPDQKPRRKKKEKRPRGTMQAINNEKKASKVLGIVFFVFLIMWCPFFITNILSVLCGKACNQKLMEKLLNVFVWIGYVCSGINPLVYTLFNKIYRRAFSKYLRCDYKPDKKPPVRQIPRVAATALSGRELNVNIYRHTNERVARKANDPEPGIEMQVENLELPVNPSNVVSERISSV

[3] = target: T2, 5-hydroxytryptamine receptor 1D (Cavia porcellus, UniProt Q60484); assay: Binding affinity against 5-hydroxytryptamine 1D receptor
T2 sequence (Q60484 whole entry): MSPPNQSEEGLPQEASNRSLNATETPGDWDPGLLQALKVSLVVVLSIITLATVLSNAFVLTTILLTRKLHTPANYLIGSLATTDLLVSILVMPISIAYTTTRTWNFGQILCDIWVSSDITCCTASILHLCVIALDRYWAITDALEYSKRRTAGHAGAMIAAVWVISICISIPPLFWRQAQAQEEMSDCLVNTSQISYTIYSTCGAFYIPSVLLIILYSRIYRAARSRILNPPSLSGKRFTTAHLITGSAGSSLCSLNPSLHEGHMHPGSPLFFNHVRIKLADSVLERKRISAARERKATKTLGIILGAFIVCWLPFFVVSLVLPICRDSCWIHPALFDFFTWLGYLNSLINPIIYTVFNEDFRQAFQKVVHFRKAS

[4] = target: T3, Serotonin 2 (5-HT2) receptor (Rattus norvegicus, UniProt P30994+P08909+P14842); assay: Binding affinity against 5-hydroxytryptamine 2 receptor using [125I]DOI as radioligand.; format: protein assay
[5] = target: T3, Serotonin 2 (5-HT2) receptor; assay: Binding affinity against 5-hydroxytryptamine 2 receptor using [3H]ket as radioligand.; format: protein assay
[6] = target: T2, 5-hydroxytryptamine receptor 1D; assay: Effect on forskolin stimulated adenylate cyclase activity at 5-HT1D receptor of guinea pig substantia nigra.; format: functional

Sequence of 5-hydroxytryptamine receptor 1B (P28222 whole entry): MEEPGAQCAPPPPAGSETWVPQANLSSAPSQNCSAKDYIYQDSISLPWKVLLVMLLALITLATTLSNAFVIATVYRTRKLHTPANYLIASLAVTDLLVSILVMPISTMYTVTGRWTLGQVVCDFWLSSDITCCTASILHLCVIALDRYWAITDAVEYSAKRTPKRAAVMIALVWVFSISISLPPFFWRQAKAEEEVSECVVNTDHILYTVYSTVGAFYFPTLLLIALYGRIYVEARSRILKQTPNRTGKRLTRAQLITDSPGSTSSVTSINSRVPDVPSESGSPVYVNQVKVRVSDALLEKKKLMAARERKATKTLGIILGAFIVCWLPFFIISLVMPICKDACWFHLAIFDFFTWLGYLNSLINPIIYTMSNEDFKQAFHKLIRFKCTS

SMILES | IC50 [1] [nM] | IC50 [2] [nM] | IC50 [3] [nM] | IC50 [4] [nM] | IC50 [5] [nM] | EC50 [6] [nM]
COc1ccc2[nH]cc(C[C@@H]3CCCN3C)c2c1 | 5800 | 1200 | 420 | 680 | > 8400 | 
COc1ccc2[nH]cc(C[C@H]3CCCN3C)c2c1 | 830 | 33 | 24 | 17 | 730 | 43
COc1ccc2[nH]cc(CCN(C)C)c2c1 [MEBUFOTENIN] |  |  | 49 |  |  | 
NCCc1c[nH]c2ccc(O)cc12 [SEROTONIN] |  |  | 3 |  |  | 5.2
